Assay results taken from EP0552624B1, “Use of 9-cis retinoic acid, salts and esters thereof for the treatment of epithelial tumors” (F. HOFFMANN-LA ROCHE AG, priority 1992, dated 1993).

How the values were obtained:
[1] = test system: SKv-l1, a transformed keratinocyte cell line containing human papilloma virus 16 (HPV 16); assay: Proliferation assay by direct cell counting on HPV 16-containing transformed keratinocytes; format: cell-based; conditions: 48 h, 10^-6 M, incubated for 2 days, p < 0.001, read-out: inhibited proliferation (growth inhibition in % compared to controls)
Experimental: 9-cis retinoic acid was further investigated on its effect on other transformed cell lines. A proliferation assay was performed on a virus containing cell line. SKv-l1, a transformed keratinocyte cell line containing human papilloma virus 16 (HPV 16) was tested with regard to inhibition of proliferation by 9-cis retinoic acid in two experiments with four replicates. 5·10^4 cells/well were plated in Eagle's medium and incubated for 2 days. Direct cell counting with a hemocytometer was done before and after incubation with the retinoid in a concentration of 10^-6 M and in corresponding DMSO controls. Growth inhibition was expressed in % compared to controls.

SKv-e2 (tumorigenic) [2] = assay: Tumor cell induced angiogenesis, in vitro preincubation of cells, SKv-e2; format: in vivo; conditions: SKv-e2 cells preincubated in vitro 48 hours with 10^-7 M, injected intradermally into untreated Balb/c mice; controls 34.7±3.7
Experimental: (§1) The angiogenesis assays have been, previously described (Sidky YA and Auerbach R. Lymphocyte induced angiogenesis: A quantitative and sensitive assay of the graft-vs-host reaction. J. exp Med 141: 1084-1100, 1975. Majewski S et al. Inhibition of tumour-induced angiogenesis by systemically administered protamine sulphate. Int J Cancer 33: 831-833, 1984). Two assays were used in testing 9-cis retinoic acid. In the first assay the retinoid was added in vitro to the cell line before being injected into mice. In the second assay the mice were injected intraperitoneally with the retinoid in vivo before the tumor cell line was injected intradermally.
(§2) Method: Cells of two tumorigenic cell lines, SKv-e2 and HeLa, and of a non-tumorigenic cell line, SKv-e1 were preincubated in vitro for 48 hours with 9-cis retinoic acid at a concentration of 10^-7 M followed by cell counting and washing in TC 199 medium. The cell concentration was adjusted to 2·10^5 viable cells per 0.1 ml of medium and injected intradermally into X-ray irradiated, but not retinoid-treated Balb/c mice. Controls were injected with tumor cells preincubated with DMSO. The angiogenic effect was determined according to the methods referred to above.

HeLa (tumorigenic) [3] = assay: Tumor cell induced angiogenesis, in vitro preincubation of cells, HeLa; format: in vivo; conditions: HeLa cells preincubated in vitro 48 hours with 10^-7 M, injected intradermally into untreated Balb/c mice; controls 32.5±2.7
Experimental: as §1, §2

SKv-e1 (non-tumorigenic) [4] = assay: Cell induced angiogenesis, in vitro preincubation of cells, SKv-e1; format: in vivo, Balb/c mice
Experimental: as §1, §2

HeLa (tumorigenic) [5] = assay: Cell induced angiogenesis, in vivo pretreatment of mice, HeLa; set-up: species or system Balb/c mice; conditions: mice pretreated in vivo intraperitoneally before intradermal cell injection, control 28.3 ± 0.8
Experimental: as §1

SKv-12 (Tumorigenic) = assay: Cell induced angiogenesis, in vivo pretreatment of mice, SKv-12; set-up: species or system Balb/c mice; conditions: mice pretreated in vivo intraperitoneally before intradermal cell injection, control 30.3 ± 2.6
Experimental: as §1

SKv-e2 (tumorigenic) [6] = assay: Cell induced angiogenesis, in vivo pretreatment of mice, SKv-e2; set-up: species or system Balb/c mice; conditions: mice pretreated in vivo intraperitoneally before intradermal cell injection, control 31.3 ± 2.7
Experimental: as §1

SKv-e1 (non-tumorigenic) [7] = assay: Cell induced angiogenesis, in vivo pretreatment of mice, SKv-e1; set-up: species or system Balb/c mice
Experimental: as §1

[8] = Acute toxicity, single intraperitoneal dose; format: in vivo, Füllinsdorf albino mice; conditions: single i.p. dose in rape oil
Experimental: Acute Toxicity was determined in Füllinsdorf albino mice. 9-cis retinoic acid was suspended in rape oil and administered intraperitoneally in one single dose. The lethal dose (LD) of 10%, 50% and 90% of the mice was recorded 24 hours, 10 days and 20 days after the application of the single dose. For each group 10 mice were used.

CC(=CC=C/C(C)=C/C(=O)O)/C=C/C1=C(C)CCCC1(C)C (stereo in doubt) [9-cis retinoic acid, (E,Z,E,E)-3,7-dimethyl-9-[2,6,6-trimethyl-1-cyclohexen-1-yl]-2,4,6,8-nonatetraenoic acid]
inhibition at 1 µM [1]: 32.4%
Mean number of blood vessels (SKv-e2 (tumorigenic) [2]): 23.6±4.2 p < 0.001
Mean number of blood vessels (HeLa (tumorigenic) [3]): 23.8±2.9 p < 0.001
Mean number of blood vessels (SKv-e1 (non-tumorigenic) [4]; SKv-e1 cells preincubated in vitro 48 hours with 10^-7 M, injected intradermally into untreated Balb/c mice, controls 26.3±1.5): 25.6±2.2 p < 0.1
angiogenesis induced by the non-tumorigenic subline (SKv-e1 (non-tumorigenic) [4]; in vitro preincubation of SKv-e1 cells, result in words): did not inhibit angiogenesis
Mean number of blood vessels (HeLa (tumorigenic) [5]): 16.3 ± 1.8
Mean number of blood vessels (SKv-12 (Tumorigenic)): 15.3 ± 1.0
Mean number of blood vessels (SKv-e2 (tumorigenic) [6]): 19.7 ± 0.6
Mean number of blood vessels (SKv-e1 (non-tumorigenic) [7]; SKv-e1, mice pretreated in vivo intraperitoneally before intradermal cell injection, control 19.7 ± 3.7): 24.3 ± 5.6
anti-angiogenic effect with a non-tumorigenic cell line (SKv-e1 (non-tumorigenic) [7]; mice treated in vivo, result in words): no anti-angiogenic effect
LD50 at 24 hours ([8]; Füllinsdorf albino, mouse, in vivo, ip, recorded 24 hours after): > 4000 mg/kg
LD50 at 10 days ([8]; Füllinsdorf albino, mouse, in vivo, ip, recorded 10 days after): 1400 mg/kg
LD50 at 20 days ([8]; Füllinsdorf albino, mouse, in vivo, ip, recorded 20 days after): 1400 mg/kg
LD 10% ([8]; recorded 24 hours after): > 4000 mg/kg
LD 90% ([8]; recorded 24 hours after): > 4000 mg/kg
LD 10% ([8]; recorded 10 days after): 1200 mg/kg
LD 90% ([8]; recorded 10 days after): 1800 mg/kg
LD 10% ([8]; recorded 20 days after): 1200 mg/kg
LD 90% ([8]; recorded 20 days after): 1800 mg/kg
